From patent publication US7064122B2, “Pancreatic lipase inhibitor compounds, their synthesis and use” (OSI Pharmaceuticals, Inc., priority 2001, dated 2006)

Key:
[1] = target: T1, type VI-S porcine pancreatic lipase (Sus scrofa, UniProt P00591); experiment: Pancreatic lipase assay (pH-stat titration, triolein substrate); assay type: biochemical; design: Ymax: unit not given here; details: for Ymax / k: 7.0 nM lipase, 700 nM inhibitor, pH 8.0; for Ymax: Ymax of the fit Y=Ymax*(1-exp(-k*X)); for k: k fitted for the 12.5 min after inhibitor addition, Y=Ymax*(1-exp(-k*X)); for inhibition at 0.7 µM: 12.5 min
T1 construct: purchased Sigma type VI-S (catalogue number not given)
T1 sequence (P00591 1-450): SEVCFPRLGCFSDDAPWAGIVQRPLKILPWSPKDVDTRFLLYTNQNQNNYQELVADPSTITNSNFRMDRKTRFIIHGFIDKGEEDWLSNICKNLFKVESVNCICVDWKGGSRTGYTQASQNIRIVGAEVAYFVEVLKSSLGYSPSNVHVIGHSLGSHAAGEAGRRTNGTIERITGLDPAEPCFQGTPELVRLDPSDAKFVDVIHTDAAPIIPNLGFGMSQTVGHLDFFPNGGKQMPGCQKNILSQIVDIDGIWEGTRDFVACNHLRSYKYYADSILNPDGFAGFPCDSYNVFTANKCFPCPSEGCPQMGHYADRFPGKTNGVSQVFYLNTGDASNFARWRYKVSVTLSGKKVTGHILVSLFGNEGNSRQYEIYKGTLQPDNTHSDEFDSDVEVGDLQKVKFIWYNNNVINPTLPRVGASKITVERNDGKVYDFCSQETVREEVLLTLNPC
Protocol: The use of a pancreatic lipase assay has been described in the literature (Hadvary, P. et al. Biochem. J. (1988) 256: 357-361; Hadvary, P. et al. Biochem. J. (1991) 266:2021-2027). Pancreatic lipase activity was measured using a 718 Stat Titrino (Brinkmann) programmed to maintain a pH of 8.0 using 0.1 N NaOH. The substrate mixture (pH 8) contained 1 mM taurochenodeoxycholate (Sigma), 9 mM taurodeoxycholate (Sigma), 0.1 mM cholesterol (Sigma), 1 mM phosphatidylcholine (Sigma), 1.5% BSA, 2 mM Tris base, 100 mM NaCl, 10 mM CaCl2, and 3% triolein (Sigma). The mixture (5 mL) was emulsified via sonication at room temperature, and added to the titration vessel with rapid stirring. The Stat Titrino was turned on and lipase (7.0 nM type VI-S porcine pancreatic lipase (Sigma) dissolved in PBS) was added to the vessel. After 10 min, inhibitor (700 nM dissolved in 100% DMSO) was added and the reaction continued for an additional 12.5 min. The k values were determined for the 12.5 min after the addition of the inhibitor using a one phase exponential association equation, Y=Ymax*(1−exp(−k*X)), k values for lipase alone were 0.0004±0.0001 sec. The k values for compounds disclosed herein are >0.0004±0.0001 sec.

| Compound | Ymax [1] | k [1] | melting point [°C] | inhibition at 0.7 µM [1] [%] |
| --- | --- | --- | --- | --- |
| CCCCCCCCOC(=O)c1sc2nc(OCCCCCCCC)oc(=O)c2c1C [Entry 9, 5-Methyl-2-octyloxy-4-oxo-4H-thieno[2,3-d][1,3]oxazine-6-carboxylic acid octyl ester] | 0.286 | 0.924 10-3.s-1 | 58.5 to 60.2 |  |
| CCCCCCCCOC(=O)c1sc2nc(OC(C)C)oc(=O)c2c1C [Entry 12, 2-iso-Propoxy-5-methyl-4-oxo-4H-thieno[2,3-d][1,3]oxazine-6-carboxylic acid octyl ester] |  | 0.438 10-3.s-1 | 47.5 to 48 |  |
| CCCCCCCCNc1nc2sc(C(=O)OCc3ccccc3)c(C)c2c(=O)o1 [Entry 16, 5-Methyl-2-octylamino-4-oxo-4H-thieno[2,3-d][1,3]oxazine-6-carboxylic acid benzyl ester] |  | 1.711 10-3.s-1 | 153.5 to 154 |  |
| CCCCCCCCNC(=O)c1sc2nc(NCCCCCCCC)oc(=O)c2c1C [Entry 18, 5-Methyl-2-octylamino-4-oxo-4H-thieno[2,3-d][1,3]oxazine-6-carboxylic acid octylamide] |  | 1.036 10-3.s-1 | 152 to 152.8 | 18 |
| CCCCCCCCNc1nc2sc(C(=O)N(CC)CCc3ccccn3)c(C)c2c(=O)o1 [Entry 51, 5-Methyl-2-octylamino-4-oxo-4H-thieno[2,3-d][1,3]oxazine-6-carboxylic acid ethyl-(2-pyridin-2-yl-ethyl)-amide] |  | 0.012 10-3.s-1 |  |  |
| CCCCCCCCNc1nc2sc(C(=O)NCc3ccco3)c(C)c2c(=O)o1 [Entry 52, 5-Methyl-2-octylamino-4-oxo-4H-thieno[2,3-d][1,3]oxazine-6-carboxylic acid (furan-2-ylmethyl)-amide] |  | 1.257 10-3.s-1 |  |  |
| CCCCCCCCNc1nc2sc(C(=O)N3CCN(CCN4CCCCC4)CC3)c(C)c2c(=O)o1 [Entry 53, 5-Methyl-2-octylamino-6-[4-(2-piperidin-1-yl-ethyl)-piperazine-1-carbonyl]-thieno[2,3-d][1,3]oxazin-4-one] |  | 0.166 10-3.s-1 |  |  |
| CCCCCCCCNc1nc2sc(C(=O)NCC(C)C)c(C)c2c(=O)o1 [Entry 54, 5-Methyl-2-octylamino-4-oxo-4H-thieno[2,3-d][1,3]oxazine-6-carboxylic acid isobutyl-amide] |  | 0.702 10-3.s-1 |  |  |
| CCCCCCCCNc1nc2sc(C(=O)NCc3ccncc3)c(C)c2c(=O)o1 [Entry 55, 5-Methyl-2-octylamino-4-oxo-4H-thieno[2,3-d][1,3]oxazine-6-carboxylic acid (pyridin-4-ylmethyl)-amide] |  | 0.754 10-3.s-1 |  |  |
| CCCCCCCCNc1nc2sc(C(=O)OCc3ccccc3)c(C)c2c(=O)s1 [Entry 56, 5-Methyl-2-octylamino-4-oxo-4H-thieno[2,3-d][1,3]thiazine-6-carboxylic acid benzyl ester] |  | 0.114 10-3.s-1 |  |  |
| CCCCCCCCN(CCCCCCCC)c1nc2sc(C(=O)OCc3ccccc3)c(C)c2c(=O)o1 [Entry 60, 2-Dioctylamino-5-methyl-4-oxo-4H-thieno[2,3-d][1,3]oxazine-6-carboxylic acid benzyl ester] |  | 0.013 10-3.s-1 |  |  |
| CCCCCCCCNc1nc2sc(C(=O)N3CCN(CC(=O)NC(C)C)CC3)c(C)c2c(=O)o1 [Entry 64, N-Isopropyl-2-(4-(5-methyl-2-octylamino-4-oxo-4H-thieno(2,3-d)(1,3)oxazine-6-carbonyl)-piperazin-1-yl)-acetamide] | 3.917 | 0.176 10-3.s-1 |  |  |
| CCCCCCCCCCCc1nc2sc(CCCCCCC)cc2c(=O)o1 [Entry 67, 6-Heptyl-2-undecyl-thieno[2,3-d][1,3]oxazin-4-one] | 10.973 | 0.064 10-3.s-1 |  |  |
| CCCCCCCCOc1nc2sc(CCCCCCC)cc2c(=O)o1 [Entry 68, 6-Heptyl-2-octyloxy-thieno[2,3-d][1,3]oxazin-4-one] | 0.020 | 5.825 10-3.s-1 |  | 78.9 |
| CCCCCCCCNc1nc2sc(C(=O)NCCOc3ccccc3)c(C)c2c(=O)o1 [Entry 70, 5-Methyl-2-octylamino-4-oxo-4H-thieno(2,3-d)(1,3)oxazine-6-carboxylic acid (2-phenoxy-ethyl)-amide] | 0.140 | 1.999 10-3.s-1 |  |  |
| CCCCCCC(C)Nc1nc2sc(C(=O)OCc3ccccc3)c(C)c2c(=O)o1 (stereo not shown) [Entry 71, 5-Methyl-2-(1-methylheptylamino)-4-oxo-4H-thieno[2,3-d][1,3]oxazine-6-carboxylic acid benzyl ester] | 14.657 | 0.086 10-3.s-1 |  |  |
| CCCCCCCCNc1nc2sc(C(=O)NCCOC)c(C)c2c(=O)o1 [Entry 72, 5-Methyl-2-octylamino-4-oxo-4H-thieno(2,3-d)(1,3)oxazine-6-carboxylic acid (2-methoxy-ethyl)-amide] | 0.185 | 1.102 10-3.s-1 |  |  |

| Compound | Ymax [1] | k [1] | melting point [°C] | inhibition at 0.7 µM [1] [%] |
| --- | --- | --- | --- | --- |
| CCCCCCCCNc1nc2sc(C(=O)NCCCOC)c(C)c2c(=O)o1 [Entry 73, 5-Methyl-2-octylamino-4-oxo-4H-thieno(2,3-d)(1,3)oxazine-6-carboxylic acid (3-methoxy-propyl)-amide] | 1.594 | 0.794 10-3.s-1 |  |  |
| CCCCCCCCOc1nc2sc(CCCC)cc2c(=O)o1 [Entry 75, 6-Butyl-2-octyloxy-thieno[2,3-d][1,3]oxazin-4-one] | 0.054 | 2.219 10-3.s-1 |  |  |
| CCCCCCCCOc1nc2sc(C(C)C)cc2c(=O)o1 [Entry 76, 6-Isopropyl-2-octyloxy-thieno[2,3-d][1,3]oxazin-4-one] | 0.161 | 1.288 10-3.s-1 |  |  |
| CCCCCCCCOc1nc2sc(Cc3ccccc3)cc2c(=O)o1 [Entry 77, 6-Benzyl-2-octyloxythieno[2,3-d][1,3]oxazin-4-one] | 0.482 | 0.392 10-3.s-1 |  |  |
| CCCCCCCCOc1nc2sc(C(C)CC(C)(C)C)cc2c(=O)o1 (stereo not shown) [Entry 78, 2-Octyloxy-6-(1,3,3-trimethyl-butyl)-thieno[2,3-d][1,3]oxazin-4-one] | 0.126 | 1.315 10-3.s-1 |  | 17.9 |
| CCCCCCCCOc1nc2sc(C(C)CCCC(C)(C)OC)cc2c(=O)o1 (stereo not shown) [Entry 83, 6-(5-Methoxy-1,5-dimethyl-hexyl)-2-octyloxy-thieno[2,3-d][1,3]oxazin-4-one] |  |  |  | 36.9 |
| CCCCCCCCOc1nc2sc(CCCCCC)cc2c(=O)o1 [Entry 84, 6-Hexyl-2-octyloxythieno[2,3-d][1,3]oxazin-4-one] | 0.029 | 3.033 10-3.s-1 |  | 71.3 |
| CCCCCCCCOc1nc2sc(CCCCCCCC)cc2c(=O)o1 [Entry 85, 6-Octyl-2-octyloxy-thieno[2,3-d][1,3]oxazin-4-one] |  |  |  | 96.1 |
| CCCCCCCCCCc1cc2c(=O)oc(OCCCCCCCC)nc2s1 [Entry 86, 6-Decyl-2-octyloxythieno[2,3-d][1,3]oxazin-4-one] |  |  |  | 73.6 |
| CCCCCCCCCCCCc1cc2c(=O)oc(OCCCCCCCC)nc2s1 [Entry 88, 6-Dodecyl-2-octyloxy-thieno[2,3-d][1,3]oxazin-4-one] |  |  |  | 74.2 |
| CCCCCCC(C)Oc1nc2sc(C(=O)OCc3ccccc3)c(C)c2c(=O)o1 (stereo not shown) [Entry 89, 5-Methyl-2-(1-methylheptyloxy)-4-oxo-4H-thieno[2,3-d][1,3]oxazine-6-carboxylic acid benzyl ester] |  |  |  | -14.1 |
| CCCCCCCCCCc1cc2c(=O)oc(OC(C)CCCCCC)nc2s1 (stereo not shown) [Entry 90, 6-Decyl-2-(1-methylheptyloxy)thieno[2,3-d][1,3]oxazin-4-one] |  |  |  | 15 |
| CCCCCCCc1cc2c(=O)oc(OC(C)CCCCCC)nc2s1 (stereo not shown) [Entry 91, 6-Heptyl-2-(1-methylheptyloxy)thieno[2,3-d][1,3]oxazin-4-one] |  |  |  | 12.4 |
| CCCCCCCCc1cc2c(=O)oc(OCCCCCC)nc2s1 [Entry 94] |  |  |  | 83 |
| CCCCCCCCc1cc2c(=O)oc(OCCCC)nc2s1 [Entry 95] |  |  |  | 60.3 |
| CCCCCCCCCCc1cc2c(=O)oc(OCCOC)nc2s1 [Entry 96, 6-Decyl-2-(2-methoxy-ethoxy)-thieno[2,3-d][1,3]oxazin-4-one] |  |  | 38 to 41 |  |
| CCCCCCCCCCc1cc2c(=O)oc(Oc3ccc(CCCC)cc3)nc2s1 [Entry 102, 2-(4-Butyl-phenoxy)-6-decyl-thieno[2,3-d][1,3]oxazin-4-one] |  |  | 55 to 58 |  |
